{
  "source": "patent US20260209777A1",
  "about": "“TARGETING GLYCOSYLPHOSPHATIDYLINOSITOL (GPI) PATHWAY PROTEINS TO TREAT OVARIAN CANCER” (UNIVERSITY OF MASSACHUSETTS, priority 2023, published 2026)",
  "biological_target": "T1, GPAA1 (Homo sapiens, UniProt O43292)",
  "T1 construct": "endogenous in cells; host or cells: OVCAR8 human ovarian cancer cells (Creative Biolabs, Cat #IOC-ZP305)",
  "T1 sequence (O43292 1-621)": "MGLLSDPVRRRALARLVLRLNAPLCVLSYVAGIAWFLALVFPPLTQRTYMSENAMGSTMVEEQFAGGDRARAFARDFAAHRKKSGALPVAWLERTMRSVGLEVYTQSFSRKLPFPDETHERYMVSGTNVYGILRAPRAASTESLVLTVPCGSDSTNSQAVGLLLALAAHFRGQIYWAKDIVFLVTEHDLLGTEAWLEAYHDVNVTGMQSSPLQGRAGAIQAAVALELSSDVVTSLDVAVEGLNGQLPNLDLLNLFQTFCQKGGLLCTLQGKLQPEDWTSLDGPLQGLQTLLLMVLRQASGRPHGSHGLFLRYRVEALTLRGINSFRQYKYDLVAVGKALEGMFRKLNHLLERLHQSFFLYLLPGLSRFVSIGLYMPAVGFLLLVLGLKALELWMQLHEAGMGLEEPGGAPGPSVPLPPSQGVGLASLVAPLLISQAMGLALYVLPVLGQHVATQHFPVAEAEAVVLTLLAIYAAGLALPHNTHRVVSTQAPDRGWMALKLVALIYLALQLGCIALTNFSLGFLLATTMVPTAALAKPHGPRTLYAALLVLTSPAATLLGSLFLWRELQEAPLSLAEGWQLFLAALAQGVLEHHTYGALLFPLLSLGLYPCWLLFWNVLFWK",
  "test": "Cellular thermal stability shift assay (CETSA)",
  "type": "binding",
  "details": "OVCAR8 cells, bestatin 100 μM for 2 hours, relative to DMSO (FIG. 6B)",
  "method": "CETSA: CETSA assays were performed as described previously (Jafari et al., Nat Protoc 2014, 9(9):2100-22). In brief, […] OVCAR8 cells were treated with DMSO or 100 μM bestatin for 2 hours. Cells (50 μl) were aliquoted in PCR tubes and incubated at room temperature (25° C.) or at a range of temperatures (37° C. to 65.2° C.) in a thermal cycler for 3 min and cooled to 4° C. Cells were lysed using Alpha SureFire Ultra Lysis Buffer (PerkinElmer, Cat #ASLU-LB) supplemented with Halt Protease Inhibitor Cocktail (ThermoFisher Scientific, Cat #78430). Insoluble proteins were separated by centrifugation at 15000×g for 30 mins at 4° C. Equal volumes of each sample were separated by SDS-PAGE and detected by immunoblotting blotting using an anti-GPAA1 polyclonal antibody (Invitrogen, Cat #PA5-100548). Three independent experiments were performed. Densitometry of the blots was performed using ImageJ software and the graph was plotted using GraphPad Prism 9.0.\nDue to the predicted structural similarity between GPAA1 and M28-type metallopeptidases, we hypothesized that GPAA1 may be inhibited by bestatin and carried out a series of experiments to test this possibility. […] The ligand-bound proteins in the soluble fraction are analyzed by immunoblotting to quantify the changes in thermal stability.",
  "data": [
    {"smiles": "CC(C)C[C@H](NC(=O)[C@@H](O)[C@H](N)Cc1ccccc1)C(=O)O", "note": "[bestatin]", "values": [
      {"measurement": "thermal stability of GPAA1", "value": "increased"}
    ]}
  ]
}
